Test results taken from patent publication US12338266B2 (GENETIC S.P.A., priority 2019, dated 2025).

How the values were obtained:
[1] = system: mice with OVA-induced allergic asthma; experiment: Salbutamol-induced relaxation of carbachol pre-contracted bronchi of OVA-sensitized mice (Protocol-1); type: in vivo, Balb/c mice
Description: (§1) Balb/c mice (8-9 weeks old, Charles River, Calco, Italy) were housed in the animal care facility at the Department of Pharmacy of the University of Naples. […] All animals were allowed to acclimate for four days prior to experiments and were subjected to 12 h light-12 h dark schedule. Each mouse was assigned an identity number and randomtzed to different groups so that all experiments were carried out in a blinded manner. The experimental procedures were approved by the Italian Ministry according to International and National law and policies (EU Directive 2010/63/EU and Italian DL 26/2014 for animal experiments, ARRIVE guidelines and the Basel declaration including the 3R concept). Animal studies are reported in compliance with the ARRIVE guidelines. Balb/c mice is the most widely mouse strain used to study asthma-like features in vivo and to investigate the undedying molecular and cellular mechanisms of allergen sensitization. Mice were treated subcutaneously (s.c.) with 0.4 mL (100 μg) of ovalbumin (OVA) complexed with alum (13 mg mL^−1) (OVA group) at day 0 and 7. Chicken egg-white ovalbumin (OVA: grade V. cat. A5503, Sigma Chemical Co., St. Louis, MO) was dissolved in sterile phosphate buffered saline (PBS) solution (250 μg/1 ml) and Al(OH)3 was added (at 13 mg/ml). This mix was used to induce the allergic sensitization of the animals by subcutaneous injection. OVA was dissolved at 3% in sterile PBS solution and this solution was nebulized (as the immunological challenges). At day 21 mice were exposed to OVA challenge for three days and then sacrificed. […] A group of animals was treated s.c. with saline (vehicle group). […] Animals were killed at selected time points by overdose of enflurane and bronchi and blood collected. Main bronchi were rapidly dissected and cleaned from fat and connective tissue. Rings of 1-2 mm length were cut and mounted in 2.5 mL isolated organ baths containing Krebs solution, at 37° C., oxygenated (95% O2 and 5% CO2), and connected to an isometric force transducer (type 7000. Ugo Basile. Cornerio, Italy) associated to a Powerlab 800 (AD Instruments). Rings were initially stretched until a resting tension of 0.5 g and allowed to equilibrate for at least 30 min. In each experiment bronchial rings were previously challenged with acetylcholine (10^−6 M) until a reproducible response curve was obtained. Subsequently, after tissue washing, a cumulative concentration response curve to carbachol (10^−9-3×10^−6 M) was performed. Results were expressed as dyne/mg tissue. In another set of experiments on bronchi pre-contracted with carbachol and salbutamol-induced relaxation was assessed.

[2] = system: mice with OVA-induced allergic asthma; experiment: Bronchial reactivity to carbachol, isolated bronchi of OVA-sensitized mice (Protocol-1); type: in vivo, Balb/c mice
Description: as §1, with “Rings of 1-2 mm length were cut and mounted in 2.5 mL isolated organ baths containing Krebs solution, at 37° C., oxygenated (95% O2 and 5% CO2), and connected to an isometric force transducer (type 7000. Ugo Basile. Cornerio, Italy) associated to a Powerlab 800 (AD Instruments). Rings were initially stretched until a resting tension of 0.5 g and allowed to equilibrate for at least 30 min. In each experiment bronchial rings were previously challenged with acetylcholine (10^−6 M) until a reproducible response curve was obtained. Subsequently, after tissue washing, a cumulative concentration response curve to carbachol (10^−9-3×10^−6 M) was performed.” left out

Q: With `CC(C)(O)c1ccccc1CCC(SCC1(CC(=O)OCC(=O)[C@@]23O[C@H](C4CCCCC4)O[C@@H]2C[C@H]2[C@@H]4CCC5=CC(=O)C=C[C@]5(C)[C@H]4[C@@H](O)C[C@@]23C)CC1)c1cccc(/C=C/c2ccc3ccc(Cl)cc3n2)c1` (stereo partly shown) [montelukast desisobutyryl-ciclesonide ester] as the compound, how does the “salbutamol-induced relaxation compared to vehicle” value ([1]; 2 mg/Kg i.p.) read?
A: further increase in salbutamol-induced relaxation when compared to vehicle

Q: And the salbutamol-induced bronchial relaxation ([1]; 0.5, 1 and 2 mg/Kg i.p., FIG. 5B)?
A: rescued salbutamol ability to inducing bronchial relaxation at all doses tested

Q: What about the “preserving salbutamol induced bronchial relaxation, compared to ciclesonide” value ([1]; ester 2 mg/kg i.p. vs ciclesonide 1 mg/kg) of the same compound?
A: significant major efficacy in preserving salbutamol induced bronchial relaxation

Q: What about the “preserving salbutamol relaxation, ester versus montelukast” value ([1]; ester 2 mg/kg i.p. vs montelukast 1 mg/kg, FIG. 7B) of the same compound?
A: significantly enhanced

Q: And the “control of bronchial hyper-reactivity (response to carbachol)” value ([2]; 0.5, 1 and 2 mg/Kg i.p. 1 hour before OVA challenge, FIG. 5A)?
A: good control of bronchial hyper-reactivity at all doses tested

Q: And the “control of hyper-reactivity to carbachol, compared to ciclesonide” value ([2]; ester 2 mg/kg i.p. vs ciclesonide 1 mg/kg, FIG. 6A)?
A: major efficacy in the control of the development of hyper-reactivity to carbachol

Q: What about the “effect on bronchial hyper-responsiveness, ester versus montelukast” value ([2]; ester 2 mg/kg i.p. vs montelukast 1 mg/kg, FIG. 7A) of the same compound?
A: comparable
